Assays:
[1] = Fluorometry characterization of DOX and CD affinity (γ-CD); format: binding; conditions: cell culture medium, 37° C.
Experimental: (§1) When DOX, a fluorescent compound, forms an inclusion complex with CD, the fluorescent signal is enhanced (1) due to diminished intermolecular quenching. Increasing the amount of β- and γ-CD monomers (0 mM-16 mM) were added to a constant concentration of DOX in cell culture medium at 37° C. (n=3). Aliquots were taken for fluorescence measurements (Synergy H1) with an excitation and emission wavelength of 498 nm and 590 nm, respectively. Based on a modified Benesi-Hildebrand equation, nonlinear regression analysis was performed in MATLAB to estimate the association constants (Ka).

[2] = Surface plasmon resonance affinity between DOX and β-CD; format: binding; conditions: HBS-N buffer pH 7.4
Experimental: (§2) Surface plasmon resonance (SPR) spectroscopy was performed on Biacore ×100 to characterize the affinity between DOX and β- and γ-CD. 6-NH2-β- and γ-CD monomers were immobilized onto CM5 sensor chips using amine-coupling chemistry. To optimize immobilization conditions, pH scouting was performed via suspending 0.1 mM of 6-NH2-β- and γ-CD monomers in various pH buffers (borate 8.5, HBS-N 7.4, PBS 7.4, acetate 5) and injecting the suspensions over the sensor chip surface. The carboxylic groups on the sensor chip surface were activated via n injection of 0.4 M EDC/0.1 M NHS. Surface immobilization in flow cell 2 proceeded with an injection of 0.1 mM of 6-amino-6-deoxy-β- or γ-CD monomers suspended in the previously determined optimal buffer, borate 8.5. Blank immobilization was performed in flow cell 1, which was used as a reference flow cell. Finally, unreacted reaction sites in both flow cells were inactivated by an injection of 1 M ethanolamine (pH 8.5). All injections were performed at […] for 7 min.
(§3) Injections of 50 mM sodium hydroxide was used to wash off any bound DOX and regenerate the sensor chip surface in between sample injections. Successful regeneration was confirmed by examining the baseline signal prior to each injection and that after regeneration. […]

[3] = tested on: U-87 MG cells; assay: Cytotoxicity of DOX against U-87 MG cells; format: cell-based, human; conditions: 2 μM of DOX
Experimental: After another 24 hr incubation, 20 μl of a 5 mg/ml MTT solution was added to each well. The cells were incubated for 3 hr and the medium was then replaced by 200 μl of DMSO. After 30 min incubation, the plate was read using Synergy H1 with an absorbance wavelength of 590 nm. The results were normalized to readings from a set of wells with cells treated with no DOX, which represented 100% survival. Percent cell death was defined as 1-percent survival.
A similar procedure was used when testing the cytoxicity of DOX against U-87 MG, a human glioblastoma cell line. However, instead of previously collected DOX solution, DOX solutions at desired concentrations were made fresh for this assay.

[4] = Surface plasmon resonance affinity between DOX and γ-CD; format: binding; conditions: HBS-N buffer pH 7.4
Experimental: as §2, §3

[5] = Fluorometry characterization of DOX and CD affinity (β-CD); format: binding; conditions: cell culture medium, 37° C.
Experimental: as §1

In the case of COc1cccc2c1C(=O)c1c(O)c3c(c(O)c1C2=O)C[C@@](O)(C(=O)CO)C[C@@H]3O[C@H]1C[C@H](N)[C@H](O)[C@H](C)O1 [DOX, doxorubicin], the “Association Constant Ka γ-CD · DOX” value [1] is reported as 264 ± 20 M⁻¹, the “Association Constant Ka β-CD · DOX” value [2] is reported as 205 ± 5 M⁻¹ and the “U-87 MG cells killed” value [3] is reported as about 20%. For the same molecule, the “Association Constant Ka γ-CD · DOX” value [4] was 490 ± 7 M⁻¹ and the “Association Constant Ka β-CD · DOX” value [5] was 153 ± 15 M⁻¹.

From US9642920B2, “Therapeutic agent delivery system and method” (Case Western Reserve University, priority 2009, dated 2017)
